What all share (type): in vivo
Assay [1] relates to ryegrass, Italian (Italian ryegrass, Lolium multiflorum). Put plainly: Test A preemergence. To be noted: Lolium multiflorum, pre-emergence, 240 h; for pest or weed control at 125 g/ha: 125 g ai/ha, preemergence, 0 to 100 scale where 0 is no effect and 100 is complete control, read-out: Ryegrass, Italian plant response rating; for pest or weed control at 500 g/ha: 500 g ai/ha, Preemergence, visual injury vs untreated controls after approximately 10 d, read-out: Ryegrass, Italian plant response rating (0 to 100 scale where 0 is no effect and 100 is complete control). The procedure, abridged:
(§1)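 Each rating is a visual injury score from 0 to 100 given about 10 d after treatment, judged against untreated controls kept alongside in the greenhouse. In loam soil–sand blend, seeds got a preemergence directed soil spray, while postemergence plants were 2 to 10 cm tall at spraying.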

Assay [2] shares this test system. Put plainly: Test A postemergence. To be noted: Lolium multiflorum, post-emergence, 240 h, 125 g ai/ha, postemergence, visual injury rating after approximately 10 d; read-out: Ryegrass, Italian plant response rating (0 to 100 scale, 0 no effect, 100 complete control). The essentials: as §1
Assay [3] relates to blackgrass (Alopecurus myosuroides). Put plainly: Test A postemergence. The conditions noted are these: Alopecurus myosuroides, post-emergence, 240 h, 125 g ai/ha, postemergence, visual injury rating after approximately 10 d; read-out: Blackgrass plant response rating (0 to 100 scale, 0 no effect, 100 complete control). The procedure, abridged: as §1
Assay [4] concerns pigweed (Amaranthus retroflexus). The assay can be described thus: Test A postemergence. The conditions noted are these: Amaranthus retroflexus, post-emergence, 240 h, 125 g ai/ha, postemergence, visual injury rating after approximately 10 d; read-out: Pigweed plant response rating (0 to 100 scale, 0 no effect, 100 complete control). The essentials: as §1
Assay [5] concerns barnyardgrass (Echinochloa crus-galli). Put plainly: Test A postemergence. The conditions noted are these: Echinochloa crus-galli, post-emergence, 240 h, 125 g ai/ha, postemergence, visual injury rating after approximately 10 d; read-out: Barnyardgrass plant response rating (0 to 100 scale, 0 no effect, 100 complete control). The procedure, abridged: as §1
For assay [6], the system named is wheat (Triticum aestivum). Put plainly: Test A postemergence. To be noted: Triticum aestivum, post-emergence, 240 h, 125 g ai/ha, postemergence, visual injury rating after approximately 10 d; read-out: Wheat plant response rating (0 to 100 scale, 0 no effect, 100 complete control). The procedure, abridged:
as §1

Assay [7] has as its system Galium (catchweed bedstraw, Galium aparine). Put plainly: Test A postemergence. To be noted: Galium, post-emergence, 240 h, 125 g ai/ha, postemergence, visual injury rating after approximately 10 d; read-out: Galium plant response rating (0 to 100 scale, 0 no effect, 100 complete control). The procedure, abridged: as §1
For the next assay, the system named is corn (Zea mays). Put plainly: Test A postemergence. To be noted: Zea mays, post-emergence, 240 h, 125 g ai/ha, postemergence, visual injury rating after approximately 10 d; read-out: Corn plant response rating (0 to 100 scale, 0 no effect, 100 complete control). The procedure, abridged: as §1
For assay [8], the system named is giant foxtail (Setaria faberii). Put plainly: Test A postemergence. To be noted: Setaria faberi, post-emergence, 240 h, 125 g ai/ha, postemergence, visual injury rating after approximately 10 d; read-out: Foxtail, Giant plant response rating (0 to 100 scale, 0 no effect, 100 complete control). The essentials:
as §1

Assay [9] concerns ragweed (common ragweed, Ambrosia elatior). The assay can be described thus: Test A postemergence. To be noted: Ambrosia artemisiifolia, post-emergence, 240 h, 125 g ai/ha, postemergence, visual injury rating after approximately 10 d; read-out: Ragweed plant response rating (0 to 100 scale, 0 no effect, 100 complete control). The procedure, abridged:
as §1

The subject of a further assay is Kochia (Kochia scoparia). The assay can be described thus: Test A postemergence. To be noted: Bassia scoparia, post-emergence, 240 h, 125 g ai/ha, postemergence, visual injury rating after approximately 10 d; read-out: Kochia plant response rating (0 to 100 scale, 0 no effect, 100 complete control). The procedure, abridged:
as §1

The test system of the next assay is rice (Oryra sativa). The assay can be described thus: Test B flooded paddy test. The conditions noted are these: Oryza sativa, Flood, 250 g ai/ha; scale of 0 to 100 where 0 is no effect and 100 is complete control; read-out: Rice plant response rating. The essentials:
(§2)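 Percent control, visually estimated after 13–15 d in the greenhouse on a 0–100 basis, compares treated pots with untreated ones; compound was put into paddy water 3 cm above the soil when plants had two leaves.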

In assay [10] the test system is sedge, umbrella (small-flower umbrella sedge, Cyperus difformis). Put plainly: Test B flooded paddy test. To be noted: Cyperus difformis, Flood, 250 g ai/ha; scale of 0 to 100 where 0 is no effect and 100 is complete control; read-out: Sedge, Umbrella plant response rating. The essentials:
as §2

The test system of assay [11] is barnyardgrass (Echinochloa crus-galli). The assay can be described thus: Test B flooded paddy test. To be noted: Echinochloa crus-galli, Flood, 250 g ai/ha; scale of 0 to 100 where 0 is no effect and 100 is complete control; read-out: Barnyardgrass plant response rating. The essentials:
as §2

Assay [12] relates to ducksalad (Heteranthera limosa). The assay can be described thus: Test B flooded paddy test. To be noted: Heteranthera limosa, Flood, 250 g ai/ha; scale of 0 to 100 where 0 is no effect and 100 is complete control; read-out: Ducksalad plant response rating. The essentials: as §2

Molecules are shown by their SMILES.

In the case of `CN1C[C@H](c2cc(F)c(F)c(F)c2)[C@@H](C(=O)Nc2cccc(F)c2F)C1=O` [Compound 879], the pest or weed control at 125 g/ha in assay [1] turned out to be 60%; in assay [2], 70%; in assay [3], 70%; in assay [4] it was 20%; in assay [5], 100%; in assay [7] it was 50%. Also, the pest or weed control at 125 g/ha in assay [8] amounted to 80%; in assay [9] it was 20%; in the assay with Kochia (Kochia scoparia), 60%. The pest or weed control at 500 g/ha in assay [1] is 90%. Also, the plant injury at 125 g/ha is 70% in assay [6] and 60% with corn (Zea mays). Moreover, the pest or weed control at 250 g/ha in the assay on rice (Oryra sativa) amounted to 0%; in assay [10], 50%; in [11], 90%; in assay [12], 100%.

As for `CN1C[C@H](c2cc(F)c(F)c(F)c2)[C@@H](C(=O)Nc2ccccc2S(C)(=O)=O)C1=O` [Compound 880], the pest or weed control at 125 g/ha in [1] is 20%; in [2], 50%; in assay [3], 0%; in assay [4] it was 50%; in assay [5] it was 90%; in [7], 60%. Further, the pest or weed control at 125 g/ha is 80% in assay [8], 40% in assay [9] and 20% in the assay with Kochia (Kochia scoparia). Moreover, the pest or weed control at 500 g/ha in assay [1] came to 70%. Also, the plant injury at 125 g/ha in assay [6] was 40%; in the assay with corn (Zea mays), 20%. Also, the pest or weed control at 250 g/ha with rice (Oryra sativa) was 0%; in assay [10], 0%; in [11], 60%; in [12], 100%.

`COc1c(F)ccc([C@H]2CNC(=O)[C@@H]2C(=O)Nc2ccc(F)cc2F)c1Cl` [Compound 883]: the pest or weed control at 125 g/ha stood at 0% in [1]; 0% in assay [2]; 0% in assay [3]; 0% in [4]; 90% in assay [5]; 0% in assay [7]. Further, the pest or weed control at 125 g/ha turned out to be 70% in assay [8], 0% in assay [9] and 30% in the assay with Kochia (Kochia scoparia). The pest or weed control at 500 g/ha in [1] came out at 20%. Moreover, the plant injury at 125 g/ha (in [6]; with corn (Zea mays)) was 0% each time. The pest or weed control at 250 g/ha was determined as 20% in the assay with rice (Oryra sativa), 0% in assay [10], 0% in assay [11] and 80% in assay [12].

Regarding `COc1cccc(C2CN(C)C(=O)C2C(=O)Nc2cccc(F)c2F)c1` (stereo not shown) [Compound 886], the pest or weed control at 125 g/ha in assay [1] is 0%; in assay [2], 20%; in assay [3], 20%; in [4], 0%; in [5] it was 90%; in assay [7], 0%. Further, the pest or weed control at 125 g/ha is 90% in assay [8], 0% in [9] and 0% with Kochia (Kochia scoparia). In addition, the pest or weed control at 500 g/ha in assay [1] turned out to be 60%. Also, the plant injury at 125 g/ha stood at 0% in assay [6] and 40% in the assay with corn (Zea mays). Besides, the pest or weed control at 250 g/ha was 0% with rice (Oryra sativa), 0% in assay [10], 75% in assay [11] and 50% in assay [12].

With `Cc1cc(C)cc([C@H]2CNC(=O)[C@@H]2C(=O)Nc2ccccc2F)c1` [Compound 888], the pest or weed control at 125 g/ha in [1] is 0%; in assay [2] it was 0%; in assay [3], 20%; in [4] it was 0%; in [5], 90%; in assay [7] it was 0%. Also, the pest or weed control at 125 g/ha in [8] is 30%; in assay [9] it was 0%; in the assay on Kochia (Kochia scoparia) it was 0%. Also, the pest or weed control at 500 g/ha in [1] amounted to 60%. The plant injury at 125 g/ha (in assay [6]; in the assay on corn (Zea mays)) was 0% in each case. In addition, the pest or weed control at 250 g/ha was 0% with rice (Oryra sativa), 0% in assay [10], 70% in assay [11] and 75% in assay [12].

Turning to `COc1c(F)ccc([C@H]2CN(C)C(=O)[C@@H]2C(=O)Nc2ccccc2F)c1Cl` [Compound 892], the pest or weed control at 125 g/ha in assay [1] was found to be 30%; in assay [2], 60%; in assay [3] it was 0%; in assay [4], 0%; in [5] it was 90%; in assay [7], 20%. Besides, the values for the pest or weed control at 125 g/ha (in assay [8]; in [9]; with Kochia (Kochia scoparia)) were 90%, 0% and 40%, respectively. In assay [1], the pest or weed control at 500 g/ha amounted to 90%. For the same compound, the plant injury at 125 g/ha (in [6]; with corn (Zea mays)) was 0% in each case. In addition, the pest or weed control at 250 g/ha in the assay with rice (Oryra sativa) is 0%; in [10], 0%; in assay [11], 65%; in [12], 80%.

As to `COc1c(F)ccc([C@H]2CN(C)C(=O)[C@@H]2C(=O)Nc2ccc(F)c(F)c2F)c1Cl` [Compound 895], the pest or weed control at 125 g/ha in assay [1] turned out to be 90%; in [2], 60%; in assay [3], 60%; in assay [4], 40%; in assay [5] it was 90%; in assay [7], 70%. Further, the pest or weed control at 125 g/ha in assay [8] turned out to be 90%; in [9], 0%; with Kochia (Kochia scoparia), 70%. Further, the pest or weed control at 500 g/ha in [1] is 70%. Further, the values for the plant injury at 125 g/ha (in assay [6]; in the assay on corn (Zea mays)) were 40% and 80%, respectively. Moreover, the pest or weed control at 250 g/ha was 0% in the assay on rice (Oryra sativa), 0% in [10], 75% in [11] and 85% in assay [12].

The values are drawn from patent publication US12077503B2, “Substituted cyclic amides and their use as herbicides” (FMC CORPORATION, priority 2015, dated 2024).
